Patent publication US11986540B2, “Compositions including pafolacianine for the identification of malignant lesions” (ON TARGET LABORATORIES, LLC., priority 2022, dated 2024)
Like-named read-outs stand apart in the source and are kept apart here.

What was measured:
ovarian cancer lesion = assay: Randomized, multicenter, open-label study: detection of ovarian cancer lesions under fluorescent light; assay type: in vivo, human
Procedure: The safety and efficacy of the compositions disclosed herein was evaluated in a randomized, multicenter, open-label study. The study enrolled 178 women diagnosed with ovarian cancer or with high clinical suspicion of ovarian cancer scheduled to undergo primary surgical cytoreduction, interval debulking, or recurrent ovarian cancer surgery. One hundred and fifty women highly suspicious for or with confirmed ovarian cancer received a composition including pafolacianine (dosed at 0.025 mg/kg at least 1 hour before initiation of fluorescence imaging). Among them, 134 women with mean age 60 (range 33 to 81) years received both normal light imaging evaluation and fluorescence imaging evaluation (the Intent-to-Image set).
The study assessed the proportion of patients with at least one evaluable ovarian cancer lesion confirmed by central pathology that was detected with compositions including pafolacianine under fluorescent light but not under normal light or palpation and not otherwise identified for resection prior to surgery. The detection proportion was estimated in women who underwent both normal light and fluorescent light (Intent-to-Image Set), see Table 1.

tumor = assay: Tumor to background ratios with different mass doses; assay type: in vivo, human; settings: dose of 0.025 mg per 1 kg bodyweight
Excerpt: Tumor to background ratios were studied with different mass doses of pafolacianine.

[1] = system: panel of 55 pharmacologically-relevant receptors, ion channels and transporters; assay: In vitro ligand binding screen (ExpresSProfile; Cerep); settings: 5 μM
Procedure: Pafolacianine (5 μM) was evaluated in an in vitro ligand binding screen (ExpresSProfile; Cerep 100010238), which assessed the potential for pafolacianine “off-target” binding to a broad panel of 55 pharmacologically-relevant receptors, ion channels and transporters.

[2] = Pharmacokinetics in specific populations; assay type: in vivo; settings: age 18-89 years, weight 41.6-133.6 kg, mild to moderate renal or hepatic impairment
[3] = Single IV dose toxicokinetics in dogs; assay type: in vivo; settings: for AUC(0-t) / C0: dog, in vivo
Procedure: Following a single IV administration of pafolacianine to male and female dogs, systemic exposure (C0, AUClast) to pafolacianine appeared similar between males and females at all dose levels (Table 3). Similar to rats, dog AUClast values were calculated from a range of concentration-time data with Tlast values varying from 5 minutes to 4 hours. In addition, there were limited dogs with reportable TK at 0.9 mg/kg (N=1-2). As a consequence, dose proportionality was not assessed for dogs. Terminal data were generally sparse (i.e., 2 or fewer measurable concentrations in the terminal phase, (FIG. 4). Similar to rat, parameters dependent on accurate determination of the terminal phase (AUCinf, T1/2, CL, Vz) were not reported.

[4] = Repeat once-weekly IV dose toxicokinetics in rats; assay type: in vivo; settings: for increase in AUCinf: after 14.9-fold increase in dose; for half-life / AUC(0-inf) / C0 / clearance / Vd: rat, in vivo; for Vd: read-out: Vss
Procedure: […] On both Day 1 and Day 13, increases in pafolacianine exposure (AUCinf) were trending slightly greater than dose proportional, noting that sparse blood sampling was employed so the variability in the AUCs could not be assessed. […] CL was slow (relative to hepatic blood flow) and Vss was moderate. Mean T1/2 ranged from approximately 6 to 11 hours.

[5] = female dogs, 0.9 mg/kg single IV, Study Day 0, N = 1
[6] = female dogs, 9.3 mg/kg single IV, Study Day 0
[7] = female dogs, 13.9 mg/kg single IV, Study Day 0
[8] = male dogs, 0.9 mg/kg single IV, Study Day 0, N = 2
[9] = male dogs, 9.3 mg/kg single IV, Study Day 0
[10] = male dogs, 13.9 mg/kg single IV, Study Day 0
[11] = female, iv, 3.1 mg/kg, rats F, 3.1 mg/kg once-weekly IV, Day 0
[12] = female, iv, 3.1 mg/kg, rats F, 3.1 mg/kg once-weekly IV, Day 13
[13] = female, iv, 30.8 mg/kg, rats F, 30.8 mg/kg once-weekly IV, Day 0
[14] = female, iv, 30.8 mg/kg, rats F, 30.8 mg/kg once-weekly IV, Day 13
[15] = female, iv, 46.3 mg/kg, rats F, 46.3 mg/kg once-weekly IV, Day 0
[16] = female, iv, 46.3 mg/kg, rats F, 46.3 mg/kg once-weekly IV, Day 13
[17] = male, iv, 3.1 mg/kg, rats M, 3.1 mg/kg once-weekly IV, Day 0
[18] = male, iv, 3.1 mg/kg, rats M, 3.1 mg/kg once-weekly IV, Day 13
[19] = male, iv, 30.8 mg/kg, rats M, 30.8 mg/kg once-weekly IV, Day 0
[20] = male, iv, 30.8 mg/kg, rats M, 30.8 mg/kg once-weekly IV, Day 13
[21] = male, iv, 46.3 mg/kg, rats M, 46.3 mg/kg once-weekly IV, Day 0
[22] = male, iv, 46.3 mg/kg, rats M, 46.3 mg/kg once-weekly IV, Day 13
[23] = rats F, 3.1 mg/kg once-weekly IV, Day 13
[24] = rats F, 30.8 mg/kg once-weekly IV, Day 13
[25] = rats F, 46.3 mg/kg once-weekly IV, Day 13
[26] = rats M, 3.1 mg/kg once-weekly IV, Day 13
[27] = rats M, 30.8 mg/kg once-weekly IV, Day 13
[28] = rats M, 46.3 mg/kg once-weekly IV, Day 13

SMILES: CC1(C)C(=CC=C2CCCC(C=CC3=[N+](CCCCS(=O)(=O)[O-])c4ccc(S(=O)(=O)O)cc4C3(C)C)=C2Oc2ccc(CC(NC(=O)c3ccc(NCc4cnc5nc(N)[nH]c(=O)c5n4)cc3)C(=O)O)cc2)N(CCCCS(=O)(=O)O)c2ccc(S(=O)(=O)O)cc21 (stereo not drawn) [pafolacianine]
- Patients with at least one confirmed ovarian cancer evaluable lesion, Proportion (%) (ovarian cancer lesion; detected under fluorescent light but not normal light or palpation, Intent-to-Image set N = 134, 0.025 mg/kg): 0.269 (26.9%)
- Patient-level false positive rate (ovarian cancer lesion; near-infrared fluorescent light, ovarian cancer lesions confirmed by central pathology): 20.2%
- tumor to background ratio (tumor): High
- affinity to off-target proteins [1]: no significant affinity
- differences in pharmacokinetics by age, weight, renal or hepatic impairment [2]: No clinically significant differences
- AUC(0-t) [3, 5]: 362 ng·h/mL
- C0 [3, 5]: 4.36 µg/mL
- AUC(0-t) [3, 6]: 17600 ng·h/mL
- C0 [3, 6]: 61.5 µg/mL
- AUC(0-t) [3, 7]: 44000 ng·h/mL
- C0 [3, 7]: 109 µg/mL
- AUC(0-t) [3, 8]: 397 ng·h/mL
- C0 [3, 8]: 3.79 µg/mL
- AUC(0-t) [3, 9]: 16800 ng·h/mL
- C0 [3, 9]: 58.5 µg/mL
- AUC(0-t) [3, 10]: 42100 ng·h/mL
- C0 [3, 10]: 107 µg/mL
- DN AUClast [3, 5]: 0.402 (μg · h/mL)/(mg/kg)
- DN AUClast [3, 6]: 1.89 (μg · h/mL)/(mg/kg)
- DN AUClast [3, 7]: 3.17 (μg · h/mL)/(mg/kg)
- DN AUClast [3, 8]: 0.442 (μg · h/mL)/(mg/kg)
- DN AUClast [3, 9]: 1.81 (μg · h/mL)/(mg/kg)
- DN AUClast [3, 10]: 3.03 (μg · h/mL)/(mg/kg)
- increase in AUCinf ([4]; Day 1, genders combined): ~18 fold
- increase in AUCinf ([4]; Day 13, genders combined): ~20 fold
- half-life ([4]; both sexes, intravenous, rats, all doses and days, read-out: Mean T1/2 range): 6 to 11 h
- AUC(0-inf) [4, 11]: 19100 ng·h/mL
- C0 [4, 11]: 21.2 µg/mL
- clearance [4, 11]: 2.72 mL/min/kg
- half-life ([4]; female, iv, 3.1 mg/kg, rats F, 3.1 mg/kg once-weekly IV, Day 0, read-out: T1/2 (converted)): 7.18 h
- Vd [4, 11]: 1.08 L/kg
- AUC(0-inf) [4, 12]: 16600 ng·h/mL
- C0 [4, 12]: 4.76 µg/mL
- clearance [4, 12]: 3.1 mL/min/kg
- half-life ([4]; female, iv, 3.1 mg/kg, rats F, 3.1 mg/kg once-weekly IV, Day 13, read-out: T1/2 (converted)): 8.43 h
- Vd [4, 12]: 1.7 L/kg
- AUC(0-inf) [4, 13]: 237000 ng·h/mL
- C0 [4, 13]: 194 µg/mL
- clearance [4, 13]: 2.17 mL/min/kg
- half-life ([4]; female, iv, 30.8 mg/kg, rats F, 30.8 mg/kg once-weekly IV, Day 0, read-out: T1/2 (converted)): 8.69 h
- Vd [4, 13]: 1.14 L/kg
- AUC(0-inf) [4, 14]: 291000 ng·h/mL
- C0 [4, 14]: 105 µg/mL
- clearance [4, 14]: 1.77 mL/min/kg
- half-life ([4]; female, iv, 30.8 mg/kg, rats F, 30.8 mg/kg once-weekly IV, Day 13, read-out: T1/2 (converted)): 6.06 h
- Vd [4, 14]: 0.773 L/kg
- AUC(0-inf) [4, 15]: 361000 ng·h/mL
- C0 [4, 15]: 245 µg/mL
- clearance [4, 15]: 2.13 mL/min/kg
- half-life ([4]; female, iv, 46.3 mg/kg, rats F, 46.3 mg/kg once-weekly IV, Day 0, read-out: T1/2 (converted)): 9.76 h
- Vd [4, 15]: 1.29 L/kg
- AUC(0-inf) [4, 16]: 387000 ng·h/mL
- C0 [4, 16]: 240 µg/mL
- clearance [4, 16]: 2 mL/min/kg
- half-life ([4]; female, iv, 46.3 mg/kg, rats F, 46.3 mg/kg once-weekly IV, Day 13, read-out: T1/2 (converted)): 5.76 h
- Vd [4, 16]: 0.806 L/kg
- AUC(0-inf) [4, 17]: 19200 ng·h/mL
- C0 [4, 17]: 27.7 µg/mL
- clearance [4, 17]: 2.68 mL/min/kg
- half-life ([4]; male, iv, 3.1 mg/kg, rats M, 3.1 mg/kg once-weekly IV, Day 0, read-out: T1/2 (converted)): 8.25 h
- Vd [4, 17]: 1.24 L/kg
- AUC(0-inf) [4, 18]: 21000 ng·h/mL
- C0 [4, 18]: 24 µg/mL
- clearance [4, 18]: 2.47 mL/min/kg
- half-life ([4]; male, iv, 3.1 mg/kg, rats M, 3.1 mg/kg once-weekly IV, Day 13, read-out: T1/2 (converted)): 9.67 h
- Vd [4, 18]: 1.5 L/kg
- AUC(0-inf) [4, 19]: 235000 ng·h/mL
- C0 [4, 19]: 165 µg/mL
- clearance [4, 19]: 2.18 mL/min/kg
- half-life ([4]; male, iv, 30.8 mg/kg, rats M, 30.8 mg/kg once-weekly IV, Day 0, read-out: T1/2 (converted)): 10.9 h
- Vd [4, 19]: 1.53 L/kg
- AUC(0-inf) [4, 20]: 329000 ng·h/mL
- C0 [4, 20]: 202 µg/mL
- clearance [4, 20]: 1.56 mL/min/kg
- half-life ([4]; male, iv, 30.8 mg/kg, rats M, 30.8 mg/kg once-weekly IV, Day 13, read-out: T1/2 (converted)): 10.4 h
- Vd [4, 20]: 1.15 L/kg
- AUC(0-inf) [4, 21]: 342000 ng·h/mL
- C0 [4, 21]: 263 µg/mL
- clearance [4, 21]: 2.27 mL/min/kg
- half-life ([4]; male, iv, 46.3 mg/kg, rats M, 46.3 mg/kg once-weekly IV, Day 0, read-out: T1/2 (converted)): 7.99 h
- Vd [4, 21]: 1.41 L/kg
- AUC(0-inf) [4, 22]: 380000 ng·h/mL
- C0 [4, 22]: 269 µg/mL
- clearance [4, 22]: 2.03 mL/min/kg
- half-life ([4]; male, iv, 46.3 mg/kg, rats M, 46.3 mg/kg once-weekly IV, Day 13, read-out: T1/2 (converted)): 7.35 h
- Vd [4, 22]: 1.12 L/kg
- DN AUCinf ([4]; rats F, 3.1 mg/kg once-weekly IV, Day 0): 6.15 (μg · h/mL)/(mg/kg)
- Accumulation Ratio [4, 23]: 0.874
- DN AUCinf [4, 23]: 5.37 (μg · h/mL)/(mg/kg)
- DN AUCinf ([4]; rats F, 30.8 mg/kg once-weekly IV, Day 0): 7.70 (μg · h/mL)/(mg/kg)
- Accumulation Ratio [4, 24]: 1.23
- DN AUCinf [4, 24]: 9.45 (μg · h/mL)/(mg/kg)
- DN AUCinf ([4]; rats F, 46.3 mg/kg once-weekly IV, Day 0): 7.80 (μg · h/mL)/(mg/kg)
- Accumulation Ratio [4, 25]: 1.07
- DN AUCinf [4, 25]: 8.35 (μg · h/mL)/(mg/kg)
- DN AUCinf ([4]; rats M, 3.1 mg/kg once-weekly IV, Day 0): 6.19 (μg · h/mL)/(mg/kg)
- Accumulation Ratio [4, 26]: 1.09
- DN AUCinf [4, 26]: 6.76 (μg · h/mL)/(mg/kg)
- DN AUCinf ([4]; rats M, 30.8 mg/kg once-weekly IV, Day 0): 7.63 (μg · h/mL)/(mg/kg)
- Accumulation Ratio [4, 27]: 1.40
- DN AUCinf [4, 27]: 10.7 (μg · h/mL)/(mg/kg)
- DN AUCinf ([4]; rats M, 46.3 mg/kg once-weekly IV, Day 0): 7.39 (μg · h/mL)/(mg/kg)
- Accumulation Ratio [4, 28]: 1.11
- DN AUCinf [4, 28]: 8.20 (μg · h/mL)/(mg/kg)
- accumulation or changes in TK parameters after repeated dosing ([4]; rats, once-weekly dosing for 3 weeks): no accumulation or changes in TK parameters were evident
